Laboratory results published in the NIST ThermoML archive (doi:10.1016/j.fluid.2013.02.008).
Numbers after ± are expanded uncertainties. Each block holds one compound with its values, some of them ahead of it.

Assay: activity coefficient (dimensionless); of the first substance listed, at infinite dilution; xn = mol fraction of the nth substance listed
Details: Liquid, Chromatography, x1 = 0

activity coefficient (353 K, 101 kPa): 2.1 ± 0.14
activity coefficient (372.4 K, 101 kPa): 1.9 ± 0.13
activity coefficient (392 K, 101 kPa): 1.79 ± 0.12
activity coefficient (430.3 K, 101 kPa): 1.68 ± 0.11
Compound: CCCCCCCCCC [decane] + CCCCCCCCCCCCCCO

activity coefficient (352.7 K, 101 kPa): 3.46 ± 0.24
activity coefficient (362.5 K, 101 kPa): 2.93 ± 0.2
activity coefficient (372.8 K, 101 kPa): 2.67 ± 0.18
activity coefficient (382.9 K, 101 kPa): 2.42 ± 0.16
activity coefficient (392 K, 101 kPa): 2.31 ± 0.16
activity coefficient (410.9 K, 101 kPa): 2.31 ± 0.16
activity coefficient (430.6 K, 101 kPa): 2.18 ± 0.15
Compound: CCCCCCCCCC [decane] + CCCCCCCCCCCCO

activity coefficient (352.8 K, 101 kPa): 2.98 ± 0.2
activity coefficient (372.2 K, 101 kPa): 2.73 ± 0.19
activity coefficient (391.6 K, 101 kPa): 2.6 ± 0.18
Compound: CCCCCCCCCC [decane] + CCCCCCCCCCO

activity coefficient (312.1 K, 101 kPa): 793 ± 55
activity coefficient (333.1 K, 101 kPa): 589 ± 41
activity coefficient (352.1 K, 101 kPa): 501 ± 34
activity coefficient (372.1 K, 101 kPa): 464 ± 32
activity coefficient (391.1 K, 101 kPa): 338 ± 23
activity coefficient (411.1 K, 101 kPa): 256 ± 18
Compound: CCCCCCCCCC [decane] + OCCCO

activity coefficient (359.5 K, 101 kPa): 1680 ± 120
activity coefficient (373.1 K, 101 kPa): 1210 ± 84
activity coefficient (392.4 K, 101 kPa): 804 ± 55
activity coefficient (411.5 K, 101 kPa): 557 ± 38
activity coefficient (431 K, 101 kPa): 454 ± 31
Compound: CCCCCCCCCC [decane] + OCCO

activity coefficient (331.8 K, 101 kPa): 1.69 ± 0.11
activity coefficient (353 K, 101 kPa): 1.6 ± 0.11
Compound: CCCCCC [hexane] + CCCCCCCCCCCCCCO

activity coefficient (312.7 K, 101 kPa): 2.03 ± 0.14
activity coefficient (332.1 K, 101 kPa): 1.98 ± 0.13
activity coefficient (353.2 K, 101 kPa): 1.86 ± 0.13
Compound: CCCCCC [hexane] + CCCCCCCCCCCCO

activity coefficient (312.6 K, 101 kPa): 2.21 ± 0.15
activity coefficient (331.7 K, 101 kPa): 2.14 ± 0.15
activity coefficient (352.9 K, 101 kPa): 2.02 ± 0.14
Compound: CCCCCC [hexane] + CCCCCCCCCCO

activity coefficient (312.1 K, 101 kPa): 77.2 ± 5.3
activity coefficient (333.1 K, 101 kPa): 72.9 ± 5
activity coefficient (352.1 K, 101 kPa): 52.4 ± 3.6
Compound: CCCCCC [hexane] + OCCCO

activity coefficient (313.2 K, 101 kPa): 97.8 ± 6.7
activity coefficient (332.1 K, 101 kPa): 88.1 ± 6
activity coefficient (353.5 K, 101 kPa): 80.6 ± 5.5
Compound: CCCCCC [hexane] + OCCO

activity coefficient (353 K, 101 kPa): 1.87 ± 0.08
activity coefficient (372.4 K, 101 kPa): 1.76 ± 0.07
activity coefficient (391.9 K, 101 kPa): 1.69 ± 0.07
activity coefficient (410.6 K, 101 kPa): 1.63 ± 0.07
activity coefficient (430.6 K, 101 kPa): 1.61 ± 0.06
Compound: CCCCCCCC [octane] + CCCCCCCCCCCCCCO

activity coefficient (353.3 K, 101 kPa): 2.29 ± 0.16
activity coefficient (362.6 K, 101 kPa): 2.21 ± 0.15
activity coefficient (372.4 K, 101 kPa): 2.16 ± 0.15
activity coefficient (383 K, 101 kPa): 2.08 ± 0.14
activity coefficient (411.1 K, 101 kPa): 1.9 ± 0.13
activity coefficient (430.6 K, 101 kPa): 1.76 ± 0.12
Compound: CCCCCCCC [octane] + CCCCCCCCCCCCO

activity coefficient (352.7 K, 101 kPa): 2.44 ± 0.17
activity coefficient (372.2 K, 101 kPa): 2.28 ± 0.16
activity coefficient (391.8 K, 101 kPa): 2.15 ± 0.15
Compound: CCCCCCCC [octane] + CCCCCCCCCCO

activity coefficient (312.1 K, 101 kPa): 314 ± 22
activity coefficient (333.1 K, 101 kPa): 283 ± 19
activity coefficient (352.1 K, 101 kPa): 224 ± 15
activity coefficient (372.1 K, 101 kPa): 187 ± 13
activity coefficient (391.1 K, 101 kPa): 148 ± 10
Compound: CCCCCCCC [octane] + OCCCO

activity coefficient (332.1 K): 631 ± 43
activity coefficient (353.6 K): 447 ± 31
activity coefficient (372.7 K): 383 ± 26
activity coefficient (392.4 K): 313 ± 22
Compound: CCCCCCCC [octane] + OCCO
